Laboratory results published in patent US20250214993A1, “AROMATIC RING COMPOUND AND USE THEREOF” (SHANGHAI SHIJIANG BIOTECHNOLOGY CO., LTD, priority 2022, published 2025).

Tests used:
Type in all cases: cell-based
Con-NCI-H82 cell = experiment: Cell viability (Promega CellTiter-Glo, intracellular ATP), IC50 on Con-NCI-H82 cell; conditions: Homo sapiens; normal untreated NCI-H82 cell (control)
Text: (§1) The expression of NNMT protein in NCI-H82 cell was overexpressed by inserting the NNMT gene into NCI-H82 cell using a viral vector, and the NNMT protein-overexpressing NCI-H82 cell (ov-NNMT NCI-H82 cell) was obtained. The normal and untreated NCI-H82 cell (Con-NCI-H82 cell) was used as control. The expressing content of NNMT protein in the ov-NNMT NCI-H82 cell and Con-NCI-H82 cell was detected using Western Blot assay (as shown in FIG. 1), it could be seen from FIG. 1 that the NNMT protein was overexpressed in the ov-NNMT NCI-H82 cell compared with the expression level of NNMT protein in the Con-NCI-H82 cell.
(§2) The cell viability was detected using the Promega CellTiter-Glo kit which reflected cell viability by measuring intracellular ATP content. The Con-NCI-H82 cell and ov-NNMT NCI-H82 cell was cultured in 10% fetal bovine serum-containing RPMI1640 medium (+P/S).

ov-NNMT NCI-H82 cell = experiment: Cell viability (Promega CellTiter-Glo, intracellular ATP), IC50 on NNMT-overexpressing NCI-H82 cell; conditions: Homo sapiens; NCI-H82 cell overexpressing NNMT protein
Text: as §1, §2

mPTP-inactive Daoy cell = experiment: Cell viability (Promega CellTiter-Glo), IC50 on mPTP-inactive Daoy cell (PPIF shRNA); conditions: Homo sapiens; Daoy cell transfected with PPIF shRNA vector
mPTP-active Daoy cell = experiment: Cell viability (Promega CellTiter-Glo), IC50 on mPTP-active Daoy cell; conditions: Homo sapiens; Daoy cell transfected with empty virus vector

Row | Structure (SMILES) | IC50 (Con-NCI-H82 cell) | IC50 (ov-NNMT NCI-H82 cell) | IC50 (mPTP-inactive Daoy cell) | IC50 (mPTP-active Daoy cell)
1 | Cc1ccc(C(=O)C[n+]2ccc3c(c2)CCN3Cc2ccccc2)cc1 [AB24995] | 0.92 µM | 4.15 µM | 1.98 µM | 6.32 µM
2 | O=C1c2ccc(OC(F)(F)F)cc2CCC1[n+]1ccc2c(ccn2Cc2ccccc2)c1 (stereo not drawn) [AB24997] | 0.498 µM | 3.12 µM | 2.34 µM | 8.56 µM
3 | O=C1c2ccc(OC(F)(F)F)cc2CCC1[n+]1ccc2c(c1)CC(c1ccccc1)N2 (stereo not drawn) [AB27101] | 0.75 µM | 2.31 µM | 1.93 µM | 5.68 µM
4 | O=C(C[n+]1ccc2c(c1)CCC(c1ccccc1)N2)c1ccc(OC(F)(F)F)cc1 (stereo not drawn) [AB27103] | 1.48 µM | 11 µM | 4.09 µM | 8.98 µM
5 | O=C1c2cc(OC(F)(F)F)ccc2CCC1[n+]1ccc2c(c1)CCC(c1ccccc1)N2 (stereo not drawn) [AB27132] | 0.917 µM | 4.87 µM | 3.27 µM | 7.95 µM
6 | O=C1c2cc(Cl)ccc2CCC1[n+]1ccc(NCc2ccccc2)nc1 (stereo not drawn) [AB27138] | 1.1 µM | 9.82 µM | 3.62 µM | 8.82 µM
7 | O=C1c2cc(Cl)ccc2CCC1[n+]1cnc2c(ccn2Cc2ccccc2)c1 (stereo not drawn) [AB27140] | 0.182 µM | 1.58 µM | 1.48 µM | 3.66 µM
8 | CCc1cn(Cc2ccccc2)c2cc[n+](C3CCc4ccc(Cl)cc4C3=O)cc12 (stereo not drawn) [AB27171] | 0.063 µM | 1.05 µM | 0.69 µM | 1.94 µM
9 | O=C1c2cc(Cl)ccc2CCC1[n+]1ccc2c(c1)c(Cl)cn2Cc1ccccc1 (stereo not drawn) [AB27172] | 0.203 µM | 2.04 µM | 1.38 µM | 3.94 µM
10 | O=C1c2cc(Cl)ccc2CCC1[n+]1ccc2c(c1)c(F)cn2Cc1ccccc1 (stereo not drawn) [AB27173] | 0.135 µM | 2.03 µM | 1.02 µM | 3.43 µM
11 | Cc1cn(Cc2ccccc2)c2cc[n+](C3CCc4ccc(OC(F)(F)F)cc4C3=O)cc12 (stereo not drawn) [AB27175] | 0.226 µM | 2.86 µM | 1.23 µM | 3.86 µM
12 | Cc1ccc2c(c1)CCC(n1ccc3c[n+](C(C)c4ccccc4)ccc31)C2 (stereo not drawn) [AB27181] | 0.017 µM | 0.245 µM | 0.07 µM | 0.19 µM
13 | O=C1c2cc(Cl)ccc2CCC1n1ccc2c[n+](Cc3ccccc3)ccc21 (stereo not drawn) [AB27187] | 0.014 µM | 0.252 µM | 0.05 µM | 0.21 µM
14 | Cc1cn(C2CCc3ccc(Cl)cc3C2=O)c2cc[n+](Cc3ccccc3)cc12 (stereo not drawn) [AB27188] | 0.014 µM | 0.214 µM | 0.04 µM | 0.23 µM
15 | O=C1c2cc(C(F)(F)F)ccc2CCC1n1ccc2c[n+](Cc3ccccc3)ccc21 (stereo not drawn) [AB27190] | 0.013 µM | 0.182 µM | 0.04 µM | 0.13 µM
16 | O=C1c2cc(OC(F)(F)F)ccc2CCC1n1ccc2c[n+](Cc3ccccc3)ccc21 (stereo not drawn) [AB27191] | 0.01 µM | 0.184 µM | 0.04 µM | 0.25 µM
17 | Cc1ccc2c(c1)C(=O)C(n1ccc3c[n+](Cc4ccccc4)ccc31)CC2 (stereo not drawn) [AB27192] | 0.012 µM | 0.214 µM | 0.03 µM | 0.19 µM
18 | Cc1ccc2c(c1)CCC(n1ccc3c[n+](Cc4ccccc4)ccc31)C2=O (stereo not drawn) [AB27193] | 0.009 µM | 0.154 µM | 0.03 µM | 0.17 µM
19 | O=C1c2cc(Cl)ccc2CCC1[n+]1ccc2cn(-c3ccccc3)cc2c1 (stereo not drawn) [AB27196] | 0.577 µM | 5.51 µM | 2.08 µM | 6.57 µM
20 | O=C1c2cc(Cl)ccc2CCC1[n+]1ccc2cn(Cc3ccccc3)cc2c1 (stereo not drawn) [AB27197] | 0.174 µM | 1.7 µM | 1.02 µM | 3.57 µM

Row | Structure (SMILES) | IC50 (Con-NCI-H82 cell) | IC50 (ov-NNMT NCI-H82 cell) | IC50 (mPTP-inactive Daoy cell) | IC50 (mPTP-active Daoy cell)
21 | O=C1c2ccc(C(F)(F)F)cc2CCC1[n+]1ccc2cn(Cc3ccccc3)cc2c1 (stereo not drawn) [AB27294] | 1.05 µM | 6.53 µM |  | 
22 | O=C1c2ccc(OC(F)(F)F)cc2CCC1[n+]1ccc2cn(Cc3ccccc3)cc2c1 (stereo not drawn) [AB27295] | 0.717 µM | 8.48 µM |  | 
23 | Cc1ccc(C(=O)C[n+]2ccc3cn(Cc4ccccc4)cc3c2)cc1 [AB27296] | 0.396 µM | 3.58 µM |  | 
24 | Cc1ccc(C(=O)CN(CC(=O)c2ccc(C)cc2)c2cc[n+](Cc3ccccc3)cc2)cc1 [AB27299] | 0.674 µM | 1.84 µM |  | 
25 | CC(=O)C[n+]1ccc2c(ccn2C2CCc3ccc(Cl)cc3C2=O)c1 (stereo not drawn) [AB27313] | 4.37 µM | 7.36 µM |  | 
26 | O=C(C[n+]1ccc2c(ccn2C2CCc3ccc(Cl)cc3C2=O)c1)c1ccccc1 (stereo not drawn) [AB27314] | 3.04 µM | 5.58 µM |  | 
27 | Cc1ccc(C(=O)C[n+]2ccc(NCc3ccccc3)cc2C)cc1C [AB27327] | 0.067 µM | 1.04 µM |  | 
28 | Cc1ccc(C(=O)C[n+]2ccc(NCc3cccc(C)n3)cc2C)cc1 [AB27328] | 2.79 µM | 8.47 µM |  | 
29 | Cc1ccc(C(=O)C[n+]2ccc(NCc3ccc(C)nc3)cc2C)cc1 [AB27330] | 5.11 µM | 13.5 µM |  | 
30 | Cn1cc(Cc2ccccc2)c2cc[n+](C3CCc4ccc(OC(F)(F)F)cc4C3=O)cc21 (stereo not drawn) [AB27339] | 0.341 µM | 2.9 µM |  | 
31 | Cc1ccc(C(=O)C[n+]2ccc3c(Cc4ccccc4)cn(C)c3c2)cc1 [AB27341] | 3.59 µM | 10.5 µM |  | 
32 | Cc1ccc(C(=O)C[n+]2ccc3c(Cc4ccccc4)cn(C)c3c2C)cc1 [AB27343] | 2.04 µM | 5.87 µM |  | 
33 | O=C1c2cc(F)ccc2CCC1n1ccc2c[n+](Cc3ccccc3)ccc21 (stereo not drawn) [AB27353] | 0.019 µM | 0.332 µM |  | 
34 | CC(c1ccccc1)[n+]1ccc2c(ccn2C2CCc3ccc(F)cc3C2=O)c1 (stereo not drawn) [AB27354] | 0.013 µM | 0.222 µM |  | 
35 | Cc1cc2c[n+](Cc3ccccc3)ccc2n1CC(=O)c1ccc(C(F)(F)F)cc1 [AB27357] | 0.074 µM | 1.22 µM |  | 
36 | Cc1cc2c[n+](Cc3ccccc3)ccc2n1CC(=O)c1ccc(OC(F)(F)F)cc1 [AB27358] | 0.083 µM | 1.09 µM |  | 
37 | Cc1cn(C2CCc3ccc(F)cc3C2=O)c2cc[n+](Cc3ccccc3)cc12 (stereo not drawn) [AB27460] | 0.034 µM | 0.438 µM |  | 
38 | Cc1cn(CC(=O)c2ccc(OC(F)(F)F)cc2)c2cc[n+](Cc3ccccc3)cc12 [AB27461] | 1.98 µM | 9.35 µM |  | 
39 | Cc1cn(C2CCc3ccc(C(F)(F)F)cc3C2=O)c2cc[n+](Cc3ccccc3)cc12 (stereo not drawn) [AB27464] | 0.175 µM | 1.35 µM |  | 
40 | Cc1cn(C2CCc3ccc(OC(F)(F)F)cc3C2=O)c2cc[n+](Cc3ccccc3)cc12 (stereo not drawn) [AB27465] | 0.16 µM | 1.03 µM |  | 

Row | Structure (SMILES) | IC50 (Con-NCI-H82 cell) | IC50 (ov-NNMT NCI-H82 cell) | IC50 (mPTP-inactive Daoy cell) | IC50 (mPTP-active Daoy cell)
41 | Cc1cn(C2CCc3ccc(C(F)(F)F)cc3C2=O)c2cc[n+](C(C)c3ccccc3)cc12 (stereo not drawn) [AB27468] | 0.571 µM | 6.03 µM |  | 
42 | Cc1cn(C2CCc3ccc(OC(F)(F)F)cc3C2=O)c2cc[n+](C(C)c3ccccc3)cc12 (stereo not drawn) [AB27469] | 0.427 µM | 5.43 µM |  | 
43 | Cc1cc2c[n+](Cc3ccccc3)ccc2n1C1CCc2ccc(F)cc2C1=O (stereo not drawn) [AB27473] | 0.081 µM | 1.21 µM |  | 
44 | O=C1c2cc(F)ccc2CCC1[n+]1ccc2cn(Cc3ccccc3)cc2c1 (stereo not drawn) [AB27477] | 0.164 µM | 1.98 µM |  | 
45 | Cc1cn(CC(=O)c2cccc(F)c2)c2cc[n+](Cc3ccccc3)cc12 [AB27478] | 0.023 µM | 0.283 µM |  | 
46 | Cc1cn(CC(=O)c2cccc(F)c2)c2cc[n+](C(C)c3ccccc3)cc12 (stereo not drawn) [AB27479] | 0.258 µM | 2.05 µM |  | 
47 | CC(c1ccccc1)n1cc2cc[n+](C3CCc4ccc(F)cc4C3=O)cc2c1 (stereo not drawn) [AB27480] | 0.181 µM | 2.33 µM |  | 
48 | Cc1ccc(C(=O)C[n+]2cc3c(cc2Cl)c(Cc2ccccc2)cn3C)cc1 [AB27482] | 3.42 µM | 9.57 µM |  | 
49 | Cc1c(Cl)c2c[n+](Cc3ccccc3)ccc2n1CC(=O)c1cccc(C(F)(F)F)c1 [AB27484] | 1.19 µM | 8.03 µM |  | 
50 | Cc1c(Cl)c2c[n+](Cc3ccccc3)ccc2n1C1CCc2ccc(Cl)cc2C1=O (stereo not drawn) [AB27485] | 0.504 µM | 7.1 µM |  | 
51 | O=C(Cn1c(Br)cc2c[n+](Cc3ccccc3)ccc21)c1cccc(C(F)(F)F)c1 [AB27490] | 0.019 µM | 0.319 µM |  | 
52 | Cc1c(C)n(CC(=O)c2cccc(C(F)(F)F)c2)c2cc[n+](Cc3ccccc3)cc12 [AB27493] | 0.281 µM | 3.45 µM |  | 
53 | O=C(Cn1ncc2c[n+](Cc3ccccc3)ccc21)c1cccc(C(F)(F)F)c1 [AB27499] | 0.921 µM | 6.84 µM |  | 
54 | O=C(Cn1cnc2c[n+](Cc3ccccc3)ccc21)c1cccc(OC(F)(F)F)c1 [AB31702] | 5.46 µM | 17.5 µM |  | 
55 | O=C(Cn1cnc2c[n+](Cc3ccccc3)ccc21)c1cccc(C(F)(F)F)c1 [AB31703] | 2.15 µM | 12.3 µM |  | 
56 | O=C(Cn1ncc2c[n+](Cc3ccccc3)ccc21)c1ccc(C(F)(F)F)cc1 [AB31705] | 5.37 µM | 19 µM |  | 
57 | Cc1ccc2c(c1)C(=O)C(n1ncc3c[n+](Cc4ccccc4)ccc31)CC2 (stereo not drawn) [AB31776] | 0.146 µM | 2.55 µM |  | 
58 | CC(c1ccccc1)[n+]1ccc2c(cnn2C2CCc3ccc(Cl)cc3C2=O)c1 (stereo not drawn) [AB31806] | 0.257 µM | 2.96 µM |  | 
